Legend:
Assay in all cases: relative viability (nuclei count vs DMSO), 5 days (fraction); higher = more cells survive
NCI-H1944 = system: NCI-H1944
How it was run: (§1)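 Relative viability is defined as nuclei in treated wells over nuclei in vehicle wells. Duplicate plates were run and medians reported. Lung cancer cell lines in 1536-well plates were dosed by pin tool one day after seeding, with one drug or with a fixed anchor-drug dose plus five library-drug doses (not always all listed) in √10 steps, and nuclei were counted after 5 days.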

NCI-H3122 = system: NCI-H3122
How it was run: as §1

NCI-H460 = system: NCI-H460
How it was run: as §1

NCI-H1915 = system: NCI-H1915
How it was run: as §1

HCC-78 = system: HCC-78
How it was run: as §1

COR-L23 = system: COR-L23
How it was run: as §1

LK-2 = system: LK-2
How it was run: as §1

PC-14 = system: PC-14
How it was run: as §1

NCI-H727 = system: NCI-H727
How it was run: as §1

HCC-44 = system: HCC-44
How it was run: as §1

NCI-H1975 = system: NCI-H1975
How it was run: as §1

A-427 = system: A-427
How it was run: as §1

HARA = system: HARA
How it was run: as §1

NCI-H2405 = system: NCI-H2405
How it was run: as §1

NCI-H2023 = system: NCI-H2023
How it was run: as §1

HCC-366 = system: HCC-366
How it was run: as §1

EBC-1 = system: EBC-1
How it was run: as §1

HCC-15 = system: HCC-15
How it was run: as §1

COR-L 105 = system: COR-L 105
How it was run: as §1

NCI-H1563 = system: NCI-H1563
How it was run: as §1

201T = system: 201T
How it was run: as §1

LCLC-97TM1 = system: LCLC-97TM1
How it was run: as §1

NCI-H1666 = system: NCI-H1666
How it was run: as §1

NCI-H1437 = system: NCI-H1437
How it was run: as §1

## Nc1cccc2c1CN(C1CCC(=O)NC1=O)C2=O (configuration not stated) [Lenalidomide] + C[C@]1(O)C[C@@H](c2nc(-c3ccc4ccc(-c5ccccc5)nc4c3)c3c(N)nccn32)C1 [Linsitinib] (partner 1 µM)
NCI-H1944; first compound 0.253 µM
  relative viability: 1.15
NCI-H1944; first compound 0.8 µM
  relative viability: 1.27
NCI-H1944; first compound 2.53 µM
  relative viability: 1.24
NCI-H1944; first compound 8 µM
  relative viability: 0.948
NCI-H3122; first compound 0.253 µM
  relative viability: 1.02
NCI-H3122; first compound 0.8 µM
  relative viability: 1.04
NCI-H3122; first compound 2.53 µM
  relative viability: 0.996
NCI-H3122; first compound 8 µM
  relative viability: 0.998
NCI-H460; first compound 0.253 µM
  relative viability: 0.777
NCI-H460; first compound 0.8 µM
  relative viability: 0.821
NCI-H460; first compound 2.53 µM
  relative viability: 1.25
NCI-H460; first compound 8 µM
  relative viability: 0.622
NCI-H1915; first compound 0.253 µM
  relative viability: 1.08
NCI-H1915; first compound 0.8 µM
  relative viability: 1.12
NCI-H1915; first compound 2.53 µM
  relative viability: 1.06
NCI-H1915; first compound 8 µM
  relative viability: 1.11
HCC-78; first compound 0.253 µM
  relative viability: 0.55
HCC-78; first compound 0.8 µM
  relative viability: 0.466
HCC-78; first compound 2.53 µM
  relative viability: 0.605
HCC-78; first compound 8 µM
  relative viability: 0.383
COR-L23; first compound 0.253 µM
  relative viability: 0.991
COR-L23; first compound 0.8 µM
  relative viability: 1.12
COR-L23; first compound 2.53 µM
  relative viability: 1.01
COR-L23; first compound 8 µM
  relative viability: 0.906
LK-2; first compound 0.253 µM
  relative viability: 0.427
LK-2; first compound 0.8 µM
  relative viability: 0.355
LK-2; first compound 2.53 µM
  relative viability: 0.428
LK-2; first compound 8 µM
  relative viability: 0.451
PC-14; first compound 0.253 µM
  relative viability: 0.925
PC-14; first compound 0.8 µM
  relative viability: 0.988
PC-14; first compound 2.53 µM
  relative viability: 0.978
PC-14; first compound 8 µM
  relative viability: 0.969
NCI-H727; first compound 0.253 µM
  relative viability: 0.311
NCI-H727; first compound 2.53 µM
  relative viability: 0.308
NCI-H727; first compound 8 µM
  relative viability: 0.288
HCC-44; first compound 0.253 µM
  relative viability: 0.648
HCC-44; first compound 0.8 µM
  relative viability: 0.537
HCC-44; first compound 2.53 µM
  relative viability: 0.738
HCC-44; first compound 8 µM
  relative viability: 0.522
NCI-H1975; first compound 0.253 µM
  relative viability: 1.15
NCI-H1975; first compound 0.8 µM
  relative viability: 1
NCI-H1975; first compound 2.53 µM
  relative viability: 1.2
NCI-H1975; first compound 8 µM
  relative viability: 1.12
A-427; first compound 0.253 µM
  relative viability: 1.12
A-427; first compound 2.53 µM
  relative viability: 1.11
A-427; first compound 8 µM
  relative viability: 1.1
HARA; first compound 0.253 µM
  relative viability: 0.992
HARA; first compound 0.8 µM
  relative viability: 0.91
HARA; first compound 2.53 µM
  relative viability: 1.18
HARA; first compound 8 µM
  relative viability: 0.906
NCI-H2405; first compound 0.253 µM
  relative viability: 0.816
NCI-H2405; first compound 0.8 µM
  relative viability: 1.05
NCI-H2405; first compound 2.53 µM
  relative viability: 0.9
NCI-H2405; first compound 8 µM
  relative viability: 0.675
NCI-H2023; first compound 0.253 µM
  relative viability: 0.68
NCI-H2023; first compound 0.8 µM
  relative viability: 0.831
NCI-H2023; first compound 2.53 µM
  relative viability: 0.681
NCI-H2023; first compound 8 µM
  relative viability: 0.695
HCC-366; first compound 0.253 µM
  relative viability: 0.689
HCC-366; first compound 0.8 µM
  relative viability: 0.548
HCC-366; first compound 2.53 µM
  relative viability: 0.601
HCC-366; first compound 8 µM
  relative viability: 0.424
EBC-1; first compound 0.253 µM
  relative viability: 0.826
EBC-1; first compound 0.8 µM
  relative viability: 0.849
EBC-1; first compound 2.53 µM
  relative viability: 1.09
EBC-1; first compound 8 µM
  relative viability: 0.774
HCC-15; first compound 0.253 µM
  relative viability: 0.91
HCC-15; first compound 2.53 µM
  relative viability: 0.975
HCC-15; first compound 8 µM
  relative viability: 0.895
COR-L 105; first compound 0.253 µM
  relative viability: 0.839
COR-L 105; first compound 0.8 µM
  relative viability: 0.774
COR-L 105; first compound 2.53 µM
  relative viability: 0.738
COR-L 105; first compound 8 µM
  relative viability: 1.12
NCI-H1563; first compound 0.253 µM
  relative viability: 1.17
NCI-H1563; first compound 0.8 µM
  relative viability: 1.16
NCI-H1563; first compound 2.53 µM
  relative viability: 1.08
NCI-H1563; first compound 8 µM
  relative viability: 1.01
201T; first compound 0.253 µM
  relative viability: 1.08
201T; first compound 0.8 µM
  relative viability: 1.18
201T; first compound 2.53 µM
  relative viability: 1.05
201T; first compound 8 µM
  relative viability: 0.908
LCLC-97TM1; first compound 0.8 µM
  relative viability: 0.218
LCLC-97TM1; first compound 2.53 µM
  relative viability: 0.157
LCLC-97TM1; first compound 8 µM
  relative viability: 0.137
NCI-H1666; first compound 0.253 µM
  relative viability: 0.921
NCI-H1666; first compound 0.8 µM
  relative viability: 0.652
NCI-H1666; first compound 2.53 µM
  relative viability: 0.853
NCI-H1666; first compound 8 µM
  relative viability: 0.833
NCI-H1437; first compound 0.253 µM
  relative viability: 0.992
NCI-H1437; first compound 0.8 µM
  relative viability: 1.15
NCI-H1437; first compound 2.53 µM
  relative viability: 1.21
NCI-H1437; first compound 8 µM
  relative viability: 1.08

Source: the supplement of paper PMC10307832
